The source of these data is US5994308A, “Broad spectrum antimicrobial peptides containing a tryptophan triplet and methods of use” (Board of Trustees of Southern Illinois University, priority 1997, dated 1999).

Where a SMILES comes first, the peptide text is derived from it.

The subject of one test is Candida albicans. The test is classed as cell-based. To be noted: 24 h. The procedure:
(§1) The minimum inhibitory concentration (MIC) was determined by growing fungal strains in YG media until the fungi reached logarithmic phase. The cells were diluted in YG medium then placed in a 96-well plate along with a series of 2-fold dilutions of the peptides. The plate was then incubated at 37° C. for 24 hours. Minimum inhibitory growth was defined as the lowest concentration at which there was no fungal growth.

Another test has as its system Aspergillus fumigatus. The test is classed as cell-based. The conditions noted are these: 24 h. The procedure: as §1

On to `CC(C)C[C@H](NC(=O)[C@H](Cc1ccccc1)NC(=O)[C@@H]1CCCN1C(=O)[C@H](Cc1c[nH]c2ccccc12)NC(=O)[C@H](Cc1c[nH]c2ccccc12)NC(=O)[C@H](Cc1c[nH]c2ccccc12)NC(=O)[C@@H]1CCCN1C(=O)[C@H](Cc1ccccc1)NC(=O)[C@H](CCCNC(=N)N)NC(=O)[C@H](CCCNC(=N)N)NC(=O)[C@@H](N)C(C)C)C(=O)N[C@@H](CCCNC(=N)N)C(=O)N[C@@H](CCCNC(=N)N)C(=O)O` [Peptide 1, VRRFPWWWPFLRR], for which the “MINIMUM INHIBITORY CONCENTRATION Candida albicans” value in the test with Candida albicans came to 1000 µg/mL. Also, the “MINIMUM INHIBITORY CONCENTRATION Aspergillus fumigatus” value with Aspergillus fumigatus was found to be 250 µg/mL.
For `CC(C)C[C@H](NC(=O)[C@H](Cc1ccccc1)NC(=O)[C@@H]1CCCN1C(=O)[C@H](Cc1c[nH]c2ccccc12)NC(=O)[C@H](Cc1c[nH]c2ccccc12)NC(=O)[C@H](Cc1c[nH]c2ccccc12)NC(=O)[C@@H]1CCCN1C(=O)[C@H](Cc1ccccc1)NC(=O)[C@@H](N)CCCNC(=N)N)C(=O)N[C@@H](CCCNC(=N)N)C(=O)O` [Peptide 3, RFPWWWPFLR] (H-RFPWWWPFLR-OH), the “MINIMUM INHIBITORY CONCENTRATION Aspergillus fumigatus” value in the test with Aspergillus fumigatus was determined as 500 µg/mL.
Still for that read-out and setting: for `N[C@@H](Cc1ccccc1)C(=O)N1CCC[C@H]1C(=O)N[C@@H](Cc1c[nH]c2ccccc12)C(=O)N[C@@H](Cc1c[nH]c2ccccc12)C(=O)N[C@@H](Cc1c[nH]c2ccccc12)C(=O)N1CCC[C@H]1C(=O)N[C@@H](Cc1ccccc1)C(=O)O` [Peptide 4, FPWWWPF] (H-FPWWWPF-OH) the value was 500 µg/mL.
